Laboratory results as given in patent US20170281611A1, “QUINOLINES AND THEIR USE FOR TREATING ENDOPLASMIC RETICULUM STRESS-CAUSED DISEASES” (EIGER BIOPHARMACEUTICALS, INC., priority 2014, published 2017).
Read-outs that look alike come from different tables or passages of the source. Each block holds one compound with its values, some of them ahead of it.

What was measured:
SERCA, cardiac SR = target: T1, SERCA, cardiac SR; experiment: Activation of SERCA, NADH-linked enzyme-coupled ATPase assay, cardiac SR; type: biochemical; details: read-out: CSR EC50
T1 construct: 2 mg or 7 mg of SR vesicles (optimized for skeletal or cardiac SR, respectively); from tissue; host or cells: cardiac sarcoplasmic reticulum vesicles
Experimental: Test compounds were characterized over a range of concentrations using an NADH-linked, enzyme-coupled ATPase assay. Each well contained 2 mg or 7 mg of SR vesicles (optimized for skeletal or cardiac SR, respectively), 50 mM MOPS (pH 7.0), 100 mM KCl, 5 mM MgCl2, 1 mM EGTA, 0.2 mM NADH, 1 mM phosphoenol pyruvate, 5 IU pyruvate kinase, 5 IU lactate dehydrogenase, and 3.5 mg/mL A23187 (a calcium ionophore), and CaCl2 was added to set free [Ca2+] to the specific values. The assay was started upon addition of ATP at a final concentration of 5 mM, and read in a SpectraMax Plus microplate spectrophotometer and the ATPase activities were fitted using the Hill function.

SERCA = experiment: Ca-ATPase assay, microsomal preparations from HEK 293 cells; type: biochemical, human
Experimental: A Ca-ATPase assay was performed using microsomal preparations from HEK 293 cells at a series of calcium concentrations corresponding to the physiological range, relative to controls. The ATP hydrolysis rate was measured over a range of calcium concentrations in the presence of test compounds using an NADH-linked, enzyme-coupled ATPase assay adapted for 96-well microplates, with Vmax determined by fitting the ATPase calcium-dependence to the Hill function. […] CaCl2 was added to set free [Ca^2+] to the specific values.

[1] = Pharmacokinetics in Beagle dogs (Table 5); type: in vivo; details: dog, PO (10 mg/kg) vs IV (1 mg/kg), based on AUC0-t
Experimental: For pharmacokinetic evaluation, 3 male Beagle dogs were intravenously (IV) dosed (1 mg/kg body weight) and 3 male Beagle dogs were orally (PO) dosed (10 mg/kg body weight) with a test compound. Blood (approximately 1.0 mL) was collected via femoral vein into tubes containing K3EDTA anticoagulant at 0, 0.017, 0.083, 0.5, 1, 2, 4, 6, 8, and 24 hours post-dosing. Plasma samples were analyzed by LC-MS/MS. The analytical results were confirmed using quality control samples for intra-assay variation. The accuracy of >66% of the quality control samples was between 80-120% of the known value(s). A standard set of pharmacokinetic parameters were generated from concentration data including Area Under the Curve (AUC0-t and AUC0-inf), elimination half-lives, clearances, volume of distribution and bioavailabilities (based on AUC0-t), maximum plasma concentration (C0; Cmax), and time to reach maximum plasma concentration (Tmax).

[2] = tested on: 6-OHDA lesioned Wistar rats; experiment: Rat unilateral 6-OHDA model of Parkinson's disease, stepping test; type: in vivo; details: D11, 10 mg/kg IP once daily for 15 days, t test
Experimental: Fifty adult male Wistar rats were used. The rats from different groups (G1 to G5) were randomized. At the beginning of the study, the rats were about 5 weeks old and naive to previous administration of any drug.
A stereotaxic injection of 6-OHDA (G2 to G5) or saline (G1: sham group) was performed to induce a unilateral dopaminergic lesion on day 0 (D0). Surgery was performed on D0 under ketamine (50 mg/kg) and xylazine (10 mg/kg). The rats of G2 to G5 received a unilateral injection of 6-OHDA (6 μL) in the left substantia nigra pars compacta. Jouve et al., J. Neurosci. 2010, 30, 9919-9928. The rats of the G1 sham group were injected with saline. During surgery, local analgesia was achieved using subcutaneous injections of lidocaine. At the end of surgery, the rats were treated with buprenorphine (0.05 mg/kg, S.C.).
The stepping test was performed after IT test, both before the 6-OHDA lesion induction on D0 and on D11. Around D−6, the stepping test was performed eight consecutive times for the right paw of each animal to obtain baseline values. On D11, the stepping test was performed one hour after the rats were dosed. Each rat was hold by an experimenter and only one of the two forelimbs was left free to move above a plane surface and the other was held with the paw touching the table. The rats were then to be moved slowly forward by the experimenter. The number of adjusting steps was countered for the right paw. Olsson et al., J. Neurosci. 1995, 15, 3863-3875.
L-DOPA and benserazide (a peripheric DOPA decarboxylase inhibitor) were prepared together as a single solution containing 0.9% NaCl and 0.1% ascorbic acid.
All the dosings were given via the IP route, once daily, Sunday excluded.

[3] = Pharmacokinetics in Sprague Dawley rats (Table 4); type: in vivo; details: rat; for AUC(0-inf) / AUC(0-t) / Cmax / Tmax / clearance / half-life / MRT inf / Vd: Sprague Dawley, in vivo; for MRT inf: read-out: MRT0-∞; for Vd: read-out: Vz; for F: PO (10 mg/kg) vs IV (2 mg/kg)
From the text: Compound D1 was formulated in 0.3% DMA/1% SOLUTOL®/98.7% saline. Compound D6 was formulated in 0.5% DMA/1% SOLUTOL®/94.5% 0.01N HCl in saline/4% NaOH (pH 4-5).

CSM14.1 cells = experiment: ER stress cell survival assay (thapsigargin, […]-GLO); type: cell-based; details: dose-response
Experimental: CSM14.1 cells were maintained in Complete Medium at 32° C.; wherein the Complete Medium contained Dulbecco's modified eagle medium (DMEM) with 10% fetal bovine serum (FSB), 1% L-glutamine, 100 IU/mL penicillin, and 100 μg/mL streptomycin. The cells were recovered from cultures by trypsinization and then seeded in 384 well plates (Greiner #781098) at a concentration of 1,000 cells/well in 20 μL of DMEM Assay Medium, wherein the DMEM Assay Medium contained 2% FBS, 100 IU/mL penicillin, and 100 μg/mL streptomycin. Seeding was performed using a MultiDrop Combi reagent broadcaster. The plates were incubated overnight at 32° C.
A test compound was prepared by 2-fold serial dilution in 100% DMSO using a BIOMEK® 2000 liquid handler (Beckman Coulter). A dose-response curve containing 10 concentrations of the test compound was obtained. Using a BIOMEK® FX liquid handler (Beckman Coulter), 2.5 μL of the test compound was transferred from the 100% DMSO serial dilution plate to an intermediate plate containing 47.5 μL of DMEM Assay Medium containing 2% FBS, 100 IU/mL penicillin, and 100 μg/mL streptomycin and mixed. To reduce or eliminate the interference from the compound's precipitation, 6 μL of the diluted compound was immediately transferred to the assay plate to achieve a high compound concentration of 100 μM in 99% DMEM Assay Medium and 1% DMSO. After the assay plates were incubated for 2 hrs, 4 μL of 112.5 μM thapsigargin (TG) (DMSO stock diluted into Assay TC Medium) was dispensed into each testing well with a MultiDrop Combi reagent broadcaster for a final concentration of about 15 μM TG. The tissue culture media (4 μL) containing vehicle only was transferred manually to each control cell using a 16 channel electronic pipette. […] High luminescence indicates cell survival.
Alternatively, a test compound was tested at a single compound concentration (e.g., 2 μM) to determine the effect of the compound on cell survival in comparison with vehicle.

T1 sequence (P16615 1-997 isoform P16615-2): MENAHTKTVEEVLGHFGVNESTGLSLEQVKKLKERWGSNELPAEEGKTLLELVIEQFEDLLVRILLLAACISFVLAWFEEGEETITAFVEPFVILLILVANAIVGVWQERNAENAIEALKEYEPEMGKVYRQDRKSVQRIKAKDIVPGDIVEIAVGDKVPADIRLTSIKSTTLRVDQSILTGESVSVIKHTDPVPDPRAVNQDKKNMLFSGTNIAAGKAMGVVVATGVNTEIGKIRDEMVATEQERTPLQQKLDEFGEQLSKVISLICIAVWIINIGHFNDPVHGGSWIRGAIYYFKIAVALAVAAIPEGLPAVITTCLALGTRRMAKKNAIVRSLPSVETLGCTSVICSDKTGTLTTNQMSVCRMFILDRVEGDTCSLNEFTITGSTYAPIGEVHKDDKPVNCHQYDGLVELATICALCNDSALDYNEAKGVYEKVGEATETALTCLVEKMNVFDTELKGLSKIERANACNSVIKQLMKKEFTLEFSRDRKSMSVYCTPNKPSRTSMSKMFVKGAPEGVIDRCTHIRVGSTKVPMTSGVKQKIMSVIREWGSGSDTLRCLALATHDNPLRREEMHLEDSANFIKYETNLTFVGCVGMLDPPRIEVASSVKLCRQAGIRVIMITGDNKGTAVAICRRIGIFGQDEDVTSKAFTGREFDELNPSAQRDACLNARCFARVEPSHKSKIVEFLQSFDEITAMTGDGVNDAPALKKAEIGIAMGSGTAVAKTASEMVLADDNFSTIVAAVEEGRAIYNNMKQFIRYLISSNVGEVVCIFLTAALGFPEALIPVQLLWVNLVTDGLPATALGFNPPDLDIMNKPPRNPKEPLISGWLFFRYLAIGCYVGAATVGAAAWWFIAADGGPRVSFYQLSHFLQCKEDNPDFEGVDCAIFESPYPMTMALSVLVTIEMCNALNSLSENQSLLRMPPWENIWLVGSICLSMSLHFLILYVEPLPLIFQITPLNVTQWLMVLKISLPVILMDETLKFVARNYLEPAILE

SMILES: Cc1ccc2cccc(NC(=O)c3ccc(C(C)(C)C)cc3)c2n1 [Compound A4, 4-(tert-Butyl)-N-(2-methylquinolin-8-yl)benzamide]
EC50 (SERCA, cardiac SR): < 20 µM

SMILES: O=C(Nc1cccc2cccnc12)c1cccc(F)c1 [Compound A7, 3-Fluoro-N-(quinolin-8-yl)benzamide]
EC50 (SERCA, cardiac SR): < 20 µM

SMILES: CC(C)Oc1ccc(C(=O)Nc2cccc3cccnc23)cc1 [Compound A11, 4-Isopropoxy-N-(quinolin-8-yl)benzamide]
EC50 (SERCA, cardiac SR): < 20 µM

SMILES: Cc1ccc2cccc(NC(=O)c3cccc(OC(C)C)c3)c2n1 [Compound A13, 3-Isopropoxy-N-(2-methylquinolin-8-yl)benzamide]
Vmax of a SERCA (SERCA): significantly increased | F [1]: 1.4%

SMILES: Cc1ccc2cccc(NC(=O)c3ccc(Br)s3)c2n1 [Compound B1, 5-Bromo-N-(2-methylquinolin-8-yl)thiophene-2-carboxamide]
number of adjusting steps [2]: statistically significant increase

The next lines start with results.

AUC(0-inf) ([3]; IV (2 mg/kg)): 5900 ± 454 ng·h/mL | AUC(0-t) ([3]; IV (2 mg/kg)): 5880 ± 453 ng·h/mL | Cmax ([3]; IV (2 mg/kg)): 18.6 ± 1.33 µM | Tmax ([3]; IV (2 mg/kg)): 1.2 min | clearance ([3]; IV (2 mg/kg)): 5.67 mL/min/kg | half-life ([3]; IV (2 mg/kg)): 193 ± 23.4 min | MRT inf ([3]; IV (2 mg/kg)): 2.98 ± 0.17 h | Vd ([3]; IV (2 mg/kg)): 1.57 ± 0.2 L/kg | AUC(0-inf) ([3]; PO (10 mg/kg)): 162000 ± 11900 ng·h/mL | AUC(0-t) ([3]; PO (10 mg/kg)): 24600 ± 4100 ng·h/mL | Cmax ([3]; PO (10 mg/kg)): 15.3 ± 3.86 µM | Tmax ([3]; PO (10 mg/kg)): 34.8 ± 22.8 min | half-life ([3]; PO (10 mg/kg)): 166 ± 41.4 min | MRT inf ([3]; PO (10 mg/kg)): 3.93 ± 0.41 h | F [3]: 84%
SMILES: O=C(c1ccccc1)N1CCN(c2ccnc3cc(Cl)ccc23)CC1 [Compound D1, (4-(7-Chloroquinolin-4-yl)piperazin-1-yl)(phenyl)methanone]
EC50 (CSM14.1 cells): 20 to 100 µM

AUC(0-inf) ([3]; IV (2 mg/kg)): 1840 ± 209 ng·h/mL | AUC(0-t) ([3]; IV (2 mg/kg)): 1790 ± 187 ng·h/mL | Cmax ([3]; IV (2 mg/kg)): 7.59 ± 0.55 µM | Tmax ([3]; IV (2 mg/kg)): 1.02 min | clearance ([3]; IV (2 mg/kg)): 18.3 mL/min/kg | half-life ([3]; IV (2 mg/kg)): 106 ± 19.8 min | MRT inf ([3]; IV (2 mg/kg)): 1.57 ± 0.22 h | Vd ([3]; IV (2 mg/kg)): 2.76 ± 0.22 L/kg | AUC(0-inf) ([3]; PO (10 mg/kg)): 8060 ± 3220 ng·h/mL | AUC(0-t) ([3]; PO (10 mg/kg)): 7890 ± 3320 ng·h/mL | Cmax ([3]; PO (10 mg/kg)): 7.33 ± 12.5 µM | Tmax ([3]; PO (10 mg/kg)): 25.2 ± 8.4 min | half-life ([3]; PO (10 mg/kg)): 106 ± 39.6 min | MRT inf ([3]; PO (10 mg/kg)): 2.88 ± 1.21 h | F [3]: 88%
SMILES: O=C(c1ccccc1F)N1CCN(c2ccnc3cc(Cl)ccc23)CC1 [Compound D2, (4-(7-Chloroquinolin-4-yl)piperazin-1-yl)(2-fluorophenyl)methanone]
EC50 (CSM14.1 cells): < 20 µM
